Results from patent US20230165970A1, “COMPOSITIONS AND METHODS FOR THE TREATMENT OF BACTERIAL INFECTIONS” (priority 2017, published 2023).
In brackets after ≈: the same amount, converted by molar mass. *1 amine or outer side, *2 acyl side, *3 side chain or, on linkers, in order; H or OH if unused. Where a SMILES comes first, the peptide text is derived from it. Bridges are numbered along the chain shown (N, C = ends). [ ]: non-standard residue; d: D form. The star is where a group is joined. Propargyl(OCH2CH2)4CO = C#CCOCCOCCOCCOCCC(=O)*; X1 = CCCCCC[C@@H](O)[C@H](N[*:1])C(=O)[*:2]; dCha = N[C@H](CC1CCCCC1)C(=O)O; Aoc(2) = CCCCCC[C@H](N)C(=O)O; Dab = NCC[C@H](N)C(=O)O; azaGly = NNC(=O)O

Legend:
Ec 2469 = assay type: cell-based, Escherichia coli
Experimental: (§1) Briefly, stock solutions of all antibacterial agents were prepared fresh in appropriate solvents (i.e. PBS, pH 7.4, DMSO, DI, etc.). Stock concentrations for drug conjugates were made at 12.5× the highest final assay concentration. All were serially diluted 2-fold, 8 or 12 times in a 96-well PCR plate (VWR cat. no. 83007-374). Bacterial cell suspensions generated from Mueller-Hinton agar (MHA) plate cultures were prepared in 0.85% saline and adjusted to ˜0.1 OD600 nm. […] For the conjugates, 92 μL of each cell suspension in RPMI B were added in the same 96-well plate assay format. […] Compounds were tested against a 14-strain panel comprised of E. coli (Ec), A. baumannii (Ab), P. aeruginosa (Pa), and K. pneumoniae (Kp) that were obtained from ATCC (Ec 25922, Ec 2489, Ab 19606, Pa 27853, Pa PAO1, Kp 43816, Kp 10031), Centers for Disease Control and Prevention (Ec AR0349), BEI Resources (Ab AB5075), Micromyx LLC (Ab 8990, Kp 6951), and Belgian Coordinated Collections of Microorganisms (Pa LES431) or generated in-house (Ec 25922 64X-1). […] E. coli strain ATCC 25922 and P. aeruginosa strain LES431 were run in the presence and absence of 50% heat-inactivated fetal bovine serum (FBS; Sigma, cat. no. F4135-100 mL). Plates were mixed by shaking then incubated at 35° C. overnight (16-20 h).

Ec 25922 = assay type: cell-based, Escherichia coli
Experimental: as §1

Ec 25922 64X-1 (COL^R) = assay type: cell-based, Escherichia coli; conditions: media CA-MHB
Experimental: (§2) Briefly, stock solutions of all antibacterial agents were prepared fresh in appropriate solvents (i.e. PBS, pH 7.4, DMSO, DI, etc.). Stock concentrations for drug conjugates were made at 12.5× the highest final assay concentration. All were serially diluted 2-fold, 8 or 12 times in a 96-well PCR plate (VWR cat. no. 83007-374). Bacterial cell suspensions generated from Mueller-Hinton agar (MHA) plate cultures were prepared in 0.85% saline and adjusted to ˜0.1 OD600 nm. Next, cell suspensions were diluted 1:200 in RPMI containing 5% Luria Broth (LB) to improve bacterial growth (BD Difco, cat. no. 244620) to a concentration of ˜5×10^5 CFU (colony-forming units)/mL. Due to poor solubility in Mueller-Hinton broth media, drug conjugates were evaluated in RPMI 1640 medium (+) L-glutamine, (+) sodium bicarbonate, pH 7.4 (“RPMI B”; Gibco, cat. no. 11875-085) as has been described as a more physiologically-relevant media for susceptibility testing of antibacterial compounds (1). For the conjugates, 92 μL of each cell suspension in RPMI B were added in the same 96-well plate assay format. […] Compounds were tested against a 14-strain panel comprised of E. coli (Ec), A. baumannii (Ab), P. aeruginosa (Pa), and K. pneumoniae (Kp) that were obtained from ATCC (Ec 25922, Ec 2489, Ab 19606, Pa 27853, Pa PAO1, Kp 43816, Kp 10031), Centers for Disease Control and Prevention (Ec AR0349), BEI Resources (Ab AB5075), Micromyx LLC (Ab 8990, Kp 6951), and Belgian Coordinated Collections of Microorganisms (Pa LES431) or generated in-house (Ec 25922 64X-1). […] E. coli strain ATCC 25922 and P. aeruginosa strain LES431 were run in the presence and absence of 50% heat-inactivated fetal bovine serum (FBS; Sigma, cat. no. F4135-100 mL). Plates were mixed by shaking then incubated at 35° C. overnight (16-20 h).

Ec AR0349 (mcr-1, COL^R) = assay type: cell-based, Escherichia coli; conditions: media CA-MHB
Experimental: as §2

Ab 19606 (COLhet^R) = assay type: cell-based, Acinetobacter baumannii; conditions: media CA-MHB
Experimental: as §2

Ab AB5075 = assay type: cell-based, Acinetobacter baumannii
Experimental: as §1

Pa 27853 = assay type: cell-based, Pseudomonas aeruginosa
Experimental: as §1

Pa LES431 = assay type: cell-based, Pseudomonas aeruginosa
Experimental: as §1

Pa PAO1 = assay type: cell-based, Pseudomonas aeruginosa; conditions: for MIC: PAO1
Experimental: as §1

Kp 10031 = assay type: cell-based, Klebsiella pneumoniae
Experimental: as §1

Kp 43816 = assay type: cell-based, Klebsiella pneumoniae
Experimental: as §1

Kp 6951 (COL^R) = assay type: cell-based, Klebsiella pneumoniae
Experimental: as §1

E. coli 25922 = conditions: 0.3 mg/kg IP qd at T+1 hour; 72 hours after bacterial challenge; N=3
Experimental: In vivo screening of selected compounds was accomplished in an E. coli bacteremia model (N=3). Efficacy was assessed in an animal model of infection using CD-1 mice by evaluating bacteremia in immune competent mice challenged with 2× the LD95 of E. coli 25922 (dosed qd, intraperitoneally (IP) at T+1 hour, survival endpoint).
Colistin (COL) and Int-17 were dosed at 0.3 mg/kg and Int-41 was dosed at 3.0 mg/kg. Percent survival was determined 72 hours after bacterial challenge. Compounds with MICs against E. coli 25922 of less than 4 μg/ml were evaluated in the bacteremia model.
Int-115 and Int-118 were evaluated for potency in a lethal model of bacteremia. […] Test articles were dissolved in 1× PBS and injected IV at a dose volume of 10 ml/kg one hour following bacterial challenge. Animals were monitored twice daily and mortality scored over three days.
CD-1 mice were used for bacteremia, C57BL/6J mice for endotoxemia. The endpoint was survival after three days for both models.

A. baumannii AB5075 = assay type: cell-based
Experimental: (§3) Overnight stationary-phase cultures were centrifuged at 3,500×g for 10 min at room temperature and resuspended in 1×PBS to an optical density at 600 nm (OD600) of 0.4 (1×10^8 colony forming units [CFU]/ml) in RPMI with L-glutamine and phenol red (Life Technologies). Bacteria were diluted 1:25 in RPMI ([…]) and 10 ul added to wells of a non-binding 96-well plate (Corning 3641) containing 80 ul of 50% hirudin anti-coagulated blood (complement active) in RPMI. […] MBC was defined as the minimum conjugate concentration required for bacterial clearance (Table 8A and Table 8B). An untreated growth control (40% blood, 0 ug/ml conjugate) was included in all assays as a growth comparator.
(§4) MBC was defined as the minimum compound concentration required for complete bacterial clearance (Table 18).
(§5) In most cases, 2-4 fold improvements in antibacterial activity for the conjugates are observed in the presence of complement active human blood.

E. coli ATCC 25922 = assay type: cell-based
Experimental: as §3, §4, §5

P. aeruginosa PAO1 = assay type: cell-based
Experimental: as §3, §4, §5

[1] = tested on: Ab AB58705 (COL^R) IpxD, mut. (no LPS); assay type: cell-based, Acinetobacter baumannii; conditions: media CA-MHB
Ab 8990 (COL^R) = assay type: cell-based, Acinetobacter baumannii; conditions: Ab 8990 (COL^R); media CA-MHB
Experimental: as §1

Sa RN = assay type: cell-based

`C#CCOCCOCCOCCOCCC(=O)N[C@@H](CCCCCC)C(=O)N[C@@H](CCN)C(=O)N[C@H](C(=O)N[C@@H](CCN)C(=O)N[C@H]1CCNC(=O)[C@H]([C@@H](C)O)NC(=O)[C@H](CCN)NC(=O)[C@H](CCN)NC(=O)[C@H](CC(C)C)NC(=O)[C@@H](Cc2ccccc2)NC(=O)[C@H](CCN)NC1=O)[C@@H](C)O` [Int-17] ({Propargyl(OCH2CH2)4CO}-[Aoc(2)][Dab]T[Dab][Dab][Dab][dF]L[Dab][Dab]T; lactam 5-C) was tested, and the MIC (Ec 2469) was 1 µg/mL (≈ 0.691 µM), the MIC (Ec 25922) was 2 µg/mL (≈ 1.38 µM) and the “MIC E. coli ATCC 25922, No serum” value (Ec 25922) was 2 µg/mL (≈ 1.38 µM). For the same compound, the “MIC E. coli ATCC 25922, Serum” value (Ec 25922) was 0.5 µg/mL (≈ 0.346 µM), the MIC (Ec 25922 64X-1 (COL^R)) was 64 µg/mL (≈ 44.2 µM) and the MIC (Ec AR0349 (mcr-1, COL^R)) was 16 µg/mL (≈ 11.1 µM). It also gave an MIC (Ab 19606 (COLhet^R)) of 1 µg/mL (≈ 0.691 µM), an MIC (Ab AB5075) of 1 µg/mL (≈ 0.691 µM) and an MIC (Pa 27853) of 2 µg/mL (≈ 1.38 µM). It also gave an MIC (Pa LES431) of 1 µg/mL (≈ 0.691 µM), an MIC (Pa PAO1) of 4 µg/mL (≈ 2.76 µM) and an MIC (Kp 10031) of 1 µg/mL (≈ 0.691 µM). The MIC (Kp 43816) was 1 µg/mL (≈ 0.691 µM), the MIC (Kp 6951 (COL^R)) was >128 µg/mL and the “% Survival (IP, QD)” value (E. coli 25922) was 100%.
With `C#CCOCCOCCOCCOCCC(=O)N[C@@H](CCN)C(=O)N[C@H](C(=O)NNC(=O)N[C@H]1CCNC(=O)[C@H]([C@@H](C)O)NC(=O)[C@H](CCN)NC(=O)[C@H](CCN)NC(=O)[C@H](CC(C)C)NC(=O)[C@@H](CC2CCCCC2)NC(=O)[C@H](CCN)NC1=O)[C@H](O)CCCCCC` [Int-115] ({Propargyl(OCH2CH2)4CO}-[Dab][X1][azaGly][Dab][Dab][dCha]L[Dab][Dab]T; lactam 4-C) the “MBC in blood AB 5075” value (A. baumannii AB5075) was 0.05 µg/mL (≈ 0.0373 µM), the “MBC in blood EC 25922” value (E. coli ATCC 25922) was 0.05 µg/mL (≈ 0.0373 µM) and the “MBC in blood PA 01” value (P. aeruginosa PAO1) was >0.2 µg/mL. For the same compound, the MIC (Ec 2469) was 2 µg/mL (≈ 1.49 µM), the MIC (Ec 25922) was 2 µg/mL (≈ 1.49 µM) and the “MIC in RPMI EC 25922” value (Ec 25922; pH 7.4) was 2.23 µg/mL (≈ 1.66 µM). For the same compound, the MIC (Ec 25922 64X-1 (COL^R)) was 64 µg/mL (≈ 47.8 µM), the MIC (Ec AR0349 (mcr-1, COL^R)) was 16 µg/mL (≈ 11.9 µM) and the MIC (Ab 19606 (COLhet^R)) was 4 µg/mL (≈ 2.99 µM). The MIC [1] was 64 µg/mL (≈ 47.8 µM), the MIC (Ab 8990 (COL^R)) was >128 µg/mL and the MIC (Ab AB5075) was 2 µg/mL (≈ 1.49 µM). The “MIC in RPMI AB 5075” value (Ab AB5075; pH 7.4) was 1.11 µg/mL (≈ 0.829 µM), the MIC (Pa 27853) was 4 µg/mL (≈ 2.99 µM) and the MIC (Pa LES431) was 4 µg/mL (≈ 2.99 µM). The MIC (Pa PAO1) was 8 µg/mL (≈ 5.97 µM), the “MIC in RPMI PA 01” value (Pa PAO1; PAO1, pH 7.4) was 8.91 µg/mL (≈ 6.65 µM) and the MIC (Kp 10031) was 2 µg/mL (≈ 1.49 µM). For the same compound, the MIC (Kp 43816) was 2 µg/mL (≈ 1.49 µM), the MIC (Kp 6951 (COL^R)) was 128 µg/mL (≈ 95.5 µM) and the MIC (Sa RN) was >128 µg/mL.
